Results: patent publication EP0705816B1, “BENZENE DERIVATIVE USEFUL FOR ISCHEMIC DISEASES” (Chugai Seiyaku Kabushiki Kaisha, priority 1993, dated 1995)
Where two headings read alike, the source gives them in different places.

What was measured:
ventricular myocytes [1] = assay: Inhibitory action on calcium overload in vitro, Method B: veratridine-treated myocytes; format: cell-based, male Sprague-Dawley rat; settings: 50 µg/ml of veratridine, read-out: Concentration at Which Cells Survived Almost Completely
Experimental: (§1) Incubated ventricular myocytes were prepared from the heart of male Sprague-Dawley rat weighing 300 to 500 g, using an enzyme-perfusion method. […]
The efficacy was evaluated in the same manner as in Method A, except for using 50 µg/ml of veratridine in place of veratrine (100 µg/ml).

rabbit LDL [2] = assay: Inhibitory action on lipid peroxidation in vitro, Method A: oxidation of LDL by soybean lipoxygenase, fluorescence of the LDL fraction; format: biochemical; settings: fluorescence intensity of LDL fraction, SLO 40 µg/ml, 37°C, 24 hours
Experimental: A test compound was added to rabbit LDL prepared according to the method of Havel, et al. (Havel RJ et al., J. Clin. Invest., 34, 1345 (1955)), and then a soybean lipoxygenase type-IS (SLO) was added to a final concentration of 40 µg/ml. Oxydation of LDL was carried out by incubating at 37°C in a CO2 incubator for 24 hours. The oxidized LDL solution was analyzed by gel-permeation chromatography, and the fluorescence intensity of the LDL fraction was measured at an excitation wavelength of 360 nm and an emission wavelength of 430 nm.

rabbit LDL [3] = assay: Inhibitory action on lipid peroxidation in vitro, Method B: CuSO4 oxidation of LDL, TBARS by fluorometry; format: biochemical; settings: 1 x 10^-5 M, CuSO4 1 µM, 37°C, 24 hours, 10 µM
Experimental: A test compound was added to rabbit LDL prepared according to the method of Havel, et al. (Havel RJ, et al., J. Clin. Invest., 34, 1345 (1955)), and then CuSO4 was added to a final concentration of 1 µM. Oxidation of LDL was performed by shaking at 37°C for 24 hours. The generated TBARS was measured by the method of Yagi utilizing fluorometry (Yagi, K., Biochem. Med., 15, 212 (1976)).

ventricular myocytes [4] = assay: Inhibitory action on calcium overload in vitro, Method A: veratrine-treated myocytes; format: cell-based, male Sprague-Dawley rat; set-up: key: ++: The cells survived almost completely at 10^-7 M.; The cells died almost completely at 10 M^-8 M; settings: compound 30 minutes, then 100 µg/ml of veratrine; shape of cells observed five minutes later
Experimental: as §1

[5] = Rattus norvegicus, Ventricular myocyte

Row | SMILES | Percent (%) of Control (rabbit LDL [2]; 5 x 10^-7 M, 0.5 µM) [%] | % of Control (rabbit LDL [3]) [%] | Survival Rate of Cells (ventricular myocytes [4]) | Percent (%) of Control (rabbit LDL [2]; 5 x 10^-6 M) [%] | other results
1 | C[C@H]1S[C@H](c2cc(C(C)(C)C)c(O)c(C(C)(C)C)c2)N(CCCN(C)CCOc2ccc3c(c2)OCO3)C1=O (relative stereo) [Compound (72), 2,5-Trans-2-(3,5-di-tert-butyl-4-hydroxyphenyl)-3-[3-[N-methyl-[2-(3,4-methylenedioxyphenoxy)ethyl]amino]propyl]-5-methyl-1,3-thiazolidin-4-one] |  |  |  |  | minimal effective concentration (ventricular myocytes [1]; [5]): 0.32 µM
2 | CN(CCCN1C(=O)CSC1c1cc(C(C)(C)C)c(O)c(C(C)(C)C)c1)CCOc1ccc2c(c1)OCO2 (single isomer, unassigned; (+)) [Compound (70), (+)-2-(3,5-Di-tert-butyl-4-hydroxyphenyl)-3-[3-[N-methyl-N-[2-(3,4-methylenedioxyphenoxy)ethyl]amino]propyl]-1,3-thiazolidin-4-one] | 15.2 | 21.1 |  |  | Percent (%) of Control (rabbit LDL [2]; 5 x 10^-6 M, 5 µM): 5.1%
3 | CC1SC(c2cc(C(C)(C)C)c(O)c(C(C)(C)C)c2)N(CCCN(C)CCOc2ccc3c(c2)OCO3)C1=O (single isomer, unassigned; (+)) [Compound (74), (+)-2,5-Cis-2-(3,5-di-tert-butyl-4-hydroxyphenyl)-3-[3-[N-methyl-N-[2-(3,4-methylenedioxyphenoxy)ethyl]amino]propyl]-5-methyl-1,3-thiazolidin-4-one] |  |  |  |  | minimal effective concentration (ventricular myocytes [1]; [5]): 0.32 µM
4 | CN(CCCN1C(=O)CSC1c1cc(C(C)(C)C)c(O)c(C(C)(C)C)c1)CCOc1ccc2c(c1)OCO2 (single isomer, unassigned; (-)) [Compound (71), (-)-2-(3,5-Di-tert-butyl-4-hydroxyphenyl)-3-[3-[N-methyl-N-[2-(3,4-methylenedioxyphenoxy)ethyl]amino]propyl]-1,3-thiazolidin-4-one] | 12.7 | 23.8 |  |  | Percent (%) of Control (rabbit LDL [2]; 5 x 10^-6 M, 5 µM): 2.8%
5 | CC1SC(c2cc(C(C)(C)C)c(O)c(C(C)(C)C)c2)N(CCCN(C)CCOc2ccc3c(c2)OCO3)C1=O (single isomer, unassigned; (-)) [Compound (75), (-)-2,5-Cis-2-(3,5-di-tert-butyl-4-hydroxyphenyl)-3-[3-[N-methyl-N-[2-(3,4-methylenedioxyphenoxy)ethyl]amino]propyl]-5-methyl-1,3-thiazolidin-4-one] |  |  |  |  | minimal effective concentration (ventricular myocytes [1]): 0.32 µM
6 | CN(CCCCN1C(=O)CSC1c1cc(C(C)(C)C)c(O)c(C(C)(C)C)c1)CCOc1ccc2c(c1)OCO2 (centres unmarked) [Compound (8)] |  |  | ++ |  | 
7 | CN(CCCCCN1C(=O)CSC1c1cc(C(C)(C)C)c(O)c(C(C)(C)C)c1)CCOc1ccc2c(c1)OCO2 (centres unmarked) [Compound (9)] | 13.5 | 26.4 | ++ | 5.9 | 
8 | CCN(CCCN1C(=O)CSC1c1cc(C(C)(C)C)c(O)c(C(C)(C)C)c1)CCOc1ccc2c(c1)OCO2 (centres unmarked) [Compound (12)] | 16.8 | 25.9 | ++ | 6.4 | 
9 | CN(CCCOc1ccc2c(c1)OCO2)CCCN1C(=O)CSC1c1cc(C(C)(C)C)c(O)c(C(C)(C)C)c1 (centres unmarked) [Compound (17)] | 16.4 | 21.0 |  | 3.9 | minimal effective concentration (ventricular myocytes [1]; [5]): 0.32 µM
10 | COc1ccc(CCN(C)CCCN2C(=O)CSC2c2cc(C(C)(C)C)c(O)c(C(C)(C)C)c2)cc1OC (centres unmarked) [Compound (20)] | 8.7 | 21.3 | + | 0.6 | 
11 | CN(CCCN1C(=O)CSC1c1cc(C(C)(C)C)c(O)c(C(C)(C)C)c1)CCOc1ccc2c(c1)OCO2 (centres unmarked) [Compound (26), 2-(3,5-Di-tert-butyl-4-hydroxyphenyl)-3-[3-[N-methyl-N-[2-(3,4-methylenedioxyphenoxy)ethyl]amino]propyl]-1,3-thiazolidin-4-one] |  |  | ++ |  | 
12 | CC(C)(C)c1cc(C2SCC(=O)N2CCCN2CCC(Oc3ccc4c(c3)OCO4)CC2)cc(C(C)(C)C)c1O (centres unmarked) [Compound (34)] |  | 20.5 |  |  | minimal effective concentration (ventricular myocytes [1]; [5]): 0.32 µM
13 | CC1SC(c2cc(C(C)(C)C)c(O)c(C(C)(C)C)c2)N(CCCN(C)CCOc2ccc3c(c2)OCO3)C1=O (centres unmarked) [Compound (41), 2-(3,5-Di-tert-butyl-4-hydroxyphenyl)-3-[3-[N-methyl-N-[2-(3,4-methylenedioxyphenoxy)ethyl]amino]propyl]-5-methyl-1,3-thiazolidin-4-one] | 18.3 | 26.3 |  | 6.2 | 
14 | CCOC(=O)CC1SC(c2cc(C(C)(C)C)c(O)c(C(C)(C)C)c2)N(CCCN(C)CCOc2ccc3c(c2)OCO3)C1=O (centres unmarked) [Compound (46), 2-(3,5-Di-tert-butyl-4-hydroxyphenyl)-3-[3-[N-methyl-N-[2-(3,4-methylenedioxyphenoxy)ethyl]amino]propyl]-5-ethoxycarbonylmethyl-1,3-thiazolidin-4-one] |  | 20.4 |  |  | 
15 | CN(CCCN1C(=O)C(CCO)SC1c1cc(C(C)(C)C)c(O)c(C(C)(C)C)c1)CCOc1ccc2c(c1)OCO2 (centres unmarked) [Compound (49), 2-(3,5-Di-tert-butyl-4-hydroxyphenyl)-3-[3-[N-methyl-N-[2-(3,4-methylenedioxyphenoxy)ethyl]amino]propyl]-5-(2-hydroxyethyl)-1,3-thiazolidin-4-one] |  | 15.7 |  |  | 
16 | CN(CCCN1C(=O)C(CC(=O)N(C)C)SC1c1cc(C(C)(C)C)c(O)c(C(C)(C)C)c1)CCOc1ccc2c(c1)OCO2 (centres unmarked) [Compound (51)] |  | 16.6 |  |  | 
17 | CN(CCCN1C(=O)C(OCCO)SC1c1cc(C(C)(C)C)c(O)c(C(C)(C)C)c1)CCOc1ccc2c(c1)OCO2 (centres unmarked) [Compound (55)] |  | 20.0 |  |  | 
18 | CN(CCCN1C(=S)CSC1c1cc(C(C)(C)C)c(O)c(C(C)(C)C)c1)CCOc1ccc2c(c1)OCO2 (centres unmarked) [Compound (57), 2-(3,5-Di-tert-butyl-4-hydroxyphenyl)-3-[3-[N-methyl-N-[2-(3,4-methylenedioxyphenoxy)ethyl]amino]propyl]-1,3-thiazolidin-4-thione] | 22.8 | 23.0 |  | 11.3 | 
19 | COc1ccc([C@@H]2Sc3ccccc3N(CCN(C)C)C(=O)[C@@H]2OC(C)=O)cc1 [Diltiazem, reference compound] | 109.1 | 96.9 | - | 110.7 | minimal effective concentration (ventricular myocytes [1]; Rattus norvegicus, Ventricular myocyte, symbol defined by footnote): > 1 µM
